Results as given in patent US4410629A, “ML-236B Derivatives and their preparation” (Sankyo Company Limited, priority 1980, dated 1983).
Where a name gives a salt, the structure may show the parent alone.

Legend:
cholesterol biosynthesis = assay: Inhibition of cholesterol biosynthesis (method of J. Biol. Chem. 234, 2835 (1959)); assay type: biochemical
serum cholesterol levels = details: animals; J. Antibiotics 29, 1346 (1976); cited from earlier work
[1] = test system: 3-hydroxy-3-methylglutaryl-coenzyme A reductase; details: competing with the rate-limiting enzyme HMG-CoA reductase; J. Antibiotics 29, 1346 (1976); cited from earlier work

Row | Structure (SMILES) | concentration required to inhibit cholesterol biosynthesis by 50% (cholesterol biosynthesis) [µg/mL] | serum cholesterol levels (serum cholesterol levels) | inhibition of the biosynthesis of cholesterol by enzymes or cultured cells [1]
1 | CC[C@H](C)C(=O)O[C@H]1C[C@H](O)C=C2C=C[C@H](C)[C@H](CC[C@@H](O)C[C@@H](O)CC(=O)OC)[C@H]21 [M-4 methyl ester] | 0.001 | – | –
2 | CC[C@H](C)C(=O)O[C@H]1CC=CC2=C[C@@H](O)[C@H](C)[C@H](CC[C@@H]3C[C@@H](O)CC(=O)O3)[C@H]21 [IsoM-4' lactone] | 0.013 | – | –
3 | CCC(C)C(=O)OC1CCC=C2C=CC(C)C(CCC3CC(O)CC(=O)O3)C21 (centres unmarked) [ML-236B] | 0.01 | significantly reduces serum cholesterol levels of animals | inhibit the biosynthesis of cholesterol
4 | CC[C@H](C)C(=O)O[C@H]1C[C@@H](O)C=C2C=C[C@H](C)[C@H](CC[C@@H](O)C[C@@H](O)CC(=O)O)[C@H]21 [M-4' sodium salt] | 0.00049 | – | –
5 | CC[C@H](C)C(=O)O[C@H]1C[C@H](O)C=C2C=C[C@H](C)[C@H](CC[C@@H](O)C[C@@H](O)CC(=O)O)[C@H]21 [M-4 sodium salt] | 0.0008 | – | –
6 | CC[C@H](C)C(=O)O[C@H]1CC=CC2=C[C@@H](O)[C@H](C)[C@H](CC[C@@H](O)C[C@@H](O)CC(=O)OC)[C@H]21 [IsoM-4' methyl ester] | 0.007 | – | –
